Data as given in patent publication US20100190788A1, “Amide derivatives as kinase inhitors” (priority 2005, published 2010).
Structures can show the parent of a compound that is named as a salt.

target: T1, human ROCKα/ROCKII mix (Homo sapiens, UniProt O75116); assay: ROCK inhibition, fluorescence polarization (FP) assay with ROCK IMAP Kit; assay type: biochemical; settings: Table 1, compounds of Formula IV20
T1 construct: purchased Upstate Biotechnology 14-451
Procedure: The compounds were tested for inhibition of human ROCKα/ROCKII mix.
The inhibition assays were performed with a fluorescence polarization (FP) assay using the commercially available ROCK IMAP Kit from Molecular Devices (Product ID. No. R8093), essentially in accordance with the protocol supplied by the manufacturer. […] The enzyme mix ROCKα/ROCKII was obtained from Upstate Biotechnology (Product ID No 14-451).
In summary, all compounds were screened in the wells of a 384 well plate for enzymatic inhibition with concentrations varying from 100 μM to 0.3 nM using a stepwise 3 (or 2)-fold dilution.
To perform the assay, 1 μl of a solution of the compound to be tested in DMSO (at each concentration) was added to 2 μl of a solution of the enzyme in 10 mM Tris-HCl, 10 mM MgCl2, 0.1% BSA, 0.05% NaN3, pH 7.2. The final concentration of the enzyme was 2.6 nM.
After incubating for 30 minutes at RT, 2 μl of a mixture of ATP and the protein substrate in 10 mM Tris-HCl, 10 mM MgCl2, 0.1% BSA, 0.05% NaN3, pH 7.2 was added. The final concentration of the ATP was 10 μM and final concentration of protein substrate was 0.2 μM.
After incubating for 60 minutes at RT, 12 μl of the IMAP Binding Solution (mix of the IMAP Binding Buffer A (1×) and the IMAP Binding Reagent (from the ROCK IMAP kit)) was added.
The mixture thus obtained (total volume: 17 μl) was incubated for 60 minutes at RT, upon which the fluorescence polarization was measured using an automated plate reader (Perkin Elmer, Model Envision 2100-0010 HTS) with FP filters: excitation filter FITC FP 480 and emission filters FITC FP P-pol 535 and FITC FP S-pol 535 (Perkin-Elmer). The results were fitted to a curve using the XL-Fit algorithm and IC50 values were calculated for each fitted curve, again using the XL-Fit algorithm.

T1 sequence (O75116 whole entry): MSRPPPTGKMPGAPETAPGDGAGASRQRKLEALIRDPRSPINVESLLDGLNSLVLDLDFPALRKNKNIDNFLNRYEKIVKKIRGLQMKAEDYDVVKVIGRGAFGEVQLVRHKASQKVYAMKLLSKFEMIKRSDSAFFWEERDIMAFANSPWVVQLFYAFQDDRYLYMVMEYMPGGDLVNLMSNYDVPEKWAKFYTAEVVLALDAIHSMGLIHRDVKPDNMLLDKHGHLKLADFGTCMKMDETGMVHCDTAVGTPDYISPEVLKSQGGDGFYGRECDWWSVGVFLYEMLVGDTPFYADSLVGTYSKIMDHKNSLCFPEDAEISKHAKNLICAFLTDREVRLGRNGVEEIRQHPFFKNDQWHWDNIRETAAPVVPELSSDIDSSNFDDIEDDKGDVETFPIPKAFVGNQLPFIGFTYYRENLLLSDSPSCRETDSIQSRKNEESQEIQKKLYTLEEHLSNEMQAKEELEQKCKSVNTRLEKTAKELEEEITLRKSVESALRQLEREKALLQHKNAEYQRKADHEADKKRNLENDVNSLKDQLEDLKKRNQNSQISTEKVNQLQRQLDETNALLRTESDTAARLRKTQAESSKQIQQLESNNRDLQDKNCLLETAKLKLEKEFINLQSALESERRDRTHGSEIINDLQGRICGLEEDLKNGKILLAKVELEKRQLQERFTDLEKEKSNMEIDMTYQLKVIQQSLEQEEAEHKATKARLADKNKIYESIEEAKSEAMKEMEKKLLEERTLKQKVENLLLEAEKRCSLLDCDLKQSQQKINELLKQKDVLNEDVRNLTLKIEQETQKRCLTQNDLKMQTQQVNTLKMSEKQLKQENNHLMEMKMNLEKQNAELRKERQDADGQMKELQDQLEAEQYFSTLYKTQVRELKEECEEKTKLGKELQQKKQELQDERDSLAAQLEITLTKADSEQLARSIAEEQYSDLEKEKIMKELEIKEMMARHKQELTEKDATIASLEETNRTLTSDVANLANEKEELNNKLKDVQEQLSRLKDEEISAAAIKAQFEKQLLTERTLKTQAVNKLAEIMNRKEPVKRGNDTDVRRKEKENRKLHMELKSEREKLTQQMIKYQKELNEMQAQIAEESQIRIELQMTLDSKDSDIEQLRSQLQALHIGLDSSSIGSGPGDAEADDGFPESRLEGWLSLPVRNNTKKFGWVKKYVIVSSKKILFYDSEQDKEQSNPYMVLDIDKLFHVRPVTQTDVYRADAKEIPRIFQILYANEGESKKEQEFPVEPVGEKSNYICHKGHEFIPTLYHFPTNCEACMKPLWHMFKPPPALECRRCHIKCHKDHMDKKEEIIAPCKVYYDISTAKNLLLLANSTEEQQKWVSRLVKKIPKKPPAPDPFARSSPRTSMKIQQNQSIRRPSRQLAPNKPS

First: NC(C(=O)NCC1CC1)c1ccc(C(=O)Nc2ccncc2)cc1 (centres unmarked) [Compound 25, 4-[amino-(cyclopropylmethyl-carbamoyl)-methyl]-N-pyridin-4-yl-benzamide]
Second: NC(C(=O)NCc1ccccc1)c1ccc(C(=O)Nc2ccncc2)cc1 (centres unmarked) [Compound 1]
The IC50 of the first is higher: 0.5 to 5 µM for the first, less than 0.5 µM for the second. The second is the more potent here.

CC(NC(=O)C(N)c1ccc(C(=O)Nc2ccncc2)cc1)c1ccccc1 (centres unmarked) [Compound 2, 4-[amino-(1-phenyl-ethylcarbamoyl)-methyl]-N-pyridin-4-yl-benzamide] and “4-[1-amino-2-(1-methyl-piperidin-1-yl)-2-oxo-ethyl]-N-pyridin-4-yl-benzamide [Compound 26]” cannot be ordered by IC50: less than 0.5 µM for the first, less than 0.5 µM for the second.

NC(C(=O)N1CCC(O)(c2ccccc2)CC1)c1ccc(C(=O)Nc2ccncc2)cc1 (centres unmarked) [Compound 38, 4-[1-amino-2-(4-hydroxy-4-phenyl-piperidin-1-yl)-2-oxo-ethyl]-N-pyridin-4-yl-benzamide] and NC(C(=O)NCC1CCCO1)c1ccc(C(=O)Nc2ccncc2)cc1 (centres unmarked) [Compound 37, 4-{amino-[(tetrahydro-furan-2-ylmethyl)-carbamoyl]-methyl}-N-pyridin-4-yl-benzamide] fall in the same range of IC50: 0.5 to 5 µM for the first, 0.5 to 5 µM for the second.

First: CCCCNNC(=O)C(N)c1ccc(C(=O)Nc2ccncc2)cc1 (centres unmarked) [Compound 54, 4-[amino-(N′-butyl-hydrazinocarbonyl)-methyl]-N-pyridin-4-yl-benzamide]
Second: CC1CN(C(=O)C(N)c2ccc(C(=O)Nc3ccncc3)cc2)CC(C)O1 (centres unmarked) [Compound 35, 4-[1-amino-2-(2,6-dimethyl-mopholin-4-yl)-2-oxo-ethyl]-N-pyridin-4-yl-benzamide]
The IC50 of the first is lower: less than 0.5 µM for the first, 0.5 to 5 µM for the second.

In the case of CS(=O)(=O)NCCNC(=O)C(N)c1ccc(C(=O)Nc2ccncc2)cc1 (centres unmarked) [Compound 40, 4-[amino-(2-methanesulfonylamino-ethylcarbamoyl)-methyl]-N-pyridin-4-yl-benzamide], the IC50 was 0.5 to 5 µM.

same assay, conditions: Table 2, compounds of Formula V20

NC(CNS(=O)(=O)c1cccs1)c1ccc(C(=O)Nc2ccncc2)cc1 (centres unmarked) [Compound 78, 4-[1-amino-2-(thiophene-2-sulfonylamino)-ethyl]-N-pyridin-4-yl-benzamide] and NC(CNS(=O)(=O)c1cccc(Cl)c1)c1ccc(C(=O)Nc2ccncc2)cc1 (centres unmarked) [Compound 68, 4-[1-amino-2-(3-chloro-benzenesulfonylamino)-ethyl]-N-pyridin-4-yl-benzamide] cannot be ordered by IC50: less than 0.5 µM for the first, less than 0.5 µM for the second.

CCCCS(=O)(=O)NCC(N)c1ccc(C(=O)Nc2ccncc2)cc1 (centres unmarked) [Compound 58, 4-[1-amino-2-(butane-1-sulfonylamino)-ethyl]-N-pyridin-4-yl-benzamide] and CCCS(=O)(=O)NCC(N)c1ccc(C(=O)Nc2ccncc2)cc1 (centres unmarked) [Compound 57, 4-[1-amino-2-(propane-1-sulfonylamino)-ethyl]-N-pyridin-4-yl-benzamide] cannot be ordered by IC50: less than 0.5 µM for the first, less than 0.5 µM for the second.

NC(CNS(=O)(=O)c1ccc(F)cc1)c1ccc(C(=O)Nc2ccncc2)cc1 (centres unmarked) [Compound 65, 4-[1-amino-2-(4-fluoro-benzenesulfonylamino)-ethyl]-N-pyridin-4-yl-benzamide] and COc1ccc(S(=O)(=O)NCC(N)c2ccc(C(=O)Nc3ccncc3)cc2)cc1 (centres unmarked) [Compound 70, 4-[1-amino-2-(4-methoxy-benzenesulfonylamino)-ethyl]-N-pyridin-4-yl-benzamide] cannot be ordered by IC50: less than 0.5 µM for the first, less than 0.5 µM for the second.

Cc1noc(C)c1S(=O)(=O)NCC(N)c1ccc(C(=O)Nc2ccncc2)cc1 (centres unmarked) [Compound 79, 4-[1-amino-2-(3,5-dimethyl-isoxazole-4-sulfonylamino)-ethyl]-N-pyridin-4-yl-benzamide] and NC(CNS(=O)(=O)c1ccccc1Cl)c1ccc(C(=O)Nc2ccncc2)cc1 (centres unmarked) [Compound 69, 4-[1-amino-2-(2-chloro-benzenesulfonylamino)-ethyl]-N-pyridin-4-yl-benzamide] cannot be ordered by IC50: less than 0.5 µM for the first, less than 0.5 µM for the second.

same assay, conditions: Table 3, compounds of Formula III20

NC(CC(=O)N1CCCC1c1ccc(Cl)c(Cl)c1)c1ccc(C(=O)Nc2ccncc2)cc1 (centres unmarked) [Compound 91, 4-{1-amino-3-[2-(3,4-dichloro-phenyl)-pyrrolidin-1-yl]-3-oxo-propyl}-N-pyridin-4-yl-benzamide] and NC(CC(=O)N1CCCCC1c1ccc(F)cc1)c1ccc(C(=O)Nc2ccncc2)cc1 (centres unmarked) [Compound 97, 4-{1-amino-3-[2-(4-fluoro-phenyl)-piperidin-1-yl]-3-oxo-propyl}-N-pyridin-4-yl-benzamide] cannot be ordered by IC50: less than 0.5 µM for the first, less than 0.5 µM for the second.

NC(CC(=O)N1CCCCC1c1cccc2ccccc12)c1ccc(C(=O)Nc2ccncc2)cc1 (centres unmarked) [Compound 93, 4-[1-amino-3-(2-naphthalen-1-yl-piperidin-1-yl)-3-oxo-propyl]-N-pyridin-4-yl-benzamide] and COc1ccc(Cl)cc1C1CCCCN1C(=O)CC(N)c1ccc(C(=O)Nc2ccncc2)cc1 (centres unmarked) [Compound 96, 4-{1-amino-3-[2-(5-chloro-2-methoxy-phenyl)-piperidin-1-yl]-3-oxo-propyl}-N-pyridin-4-yl-benzamide] cannot be ordered by IC50: less than 0.5 µM for the first, less than 0.5 µM for the second.

Compared with NC(CC(=O)N1CCc2c([nH]c3ccccc23)C1c1cccc(Cl)c1)c1ccc(C(=O)Nc2ccncc2)cc1 (stereo not drawn) [Compound 129, 4-{1-amino-3-[1-(3-chloro-phenyl)-1,3,4,9-tetrahydro-β-carbolin-2-yl]-3-oxo-propyl}-N-pyridin-4-yl-benzamide], NC(CC(=O)N1CCc2ccc(Cl)cc2C1)c1ccc(C(=O)Nc2ccncc2)cc1 (centres unmarked) [Compound 103, 4[1-amino-3-(7-chloro-3,4-dihydro-1H-isoquinolin-2-yl)-3-oxo-propyl]-N-pyridin-4-yl-benzamide] is lower in IC50: 0.5 to 5 µM for the first, less than 0.5 µM for the second.

NC(CC(=O)N1CCOCC1c1ccc(F)cc1)c1ccc(C(=O)Nc2ccncc2)cc1 (centres unmarked) [Compound 101, 4-{1-amino-3-[3-(4-fluoro-phenyl)-morpholin-4-yl]-3-oxo-propyl}-N-pyridin-4-yl-benzamide] and NC(CC(=O)N1CCc2ccc(F)cc2C1)c1ccc(C(=O)Nc2ccncc2)cc1 (centres unmarked) [Compound 104, 4-[1-amino-3-(7-fluoro-3,4-dihydro-1H-isoquinolin-2-yl)-3-oxo-propyl]-N-pyridin-4-yl-benzamide] cannot be ordered by IC50: less than 0.5 µM for the first, less than 0.5 µM for the second.

NC(CC(=O)N1CCc2ccccc2C1)c1ccc(C(=O)Nc2ccncc2)cc1 (centres unmarked) [Compound 131, 4-[1-amino-3-(3,4-dihydro-1H-isoquinolin-2-yl)-3-oxo-propyl]-N-pyridin-4-yl-benzamide] and CC(C)N1CCN(C(=O)CC(N)c2ccc(C(=O)Nc3ccncc3)cc2)CC1 (centres unmarked) [Compound 114, 4-[1-amino-3-(4-isopropyl-piperazin-1-yl)-3-oxo-propyl]-N-pyridin-4-yl-benzamide] cannot be ordered by IC50: less than 0.5 µM for the first, less than 0.5 µM for the second.

same assay, conditions: Table 4, compounds 132 to 156

N[C@H](CC(=O)N1CCC[C@H]1c1cccc(F)c1)c1ccc(C(=O)Nc2ccncc2)cc1 [Compound 150, 4-{(R)-1-Amino-3-[(S)-2-(3-fluoro-phenyl)-pyrrolidin-1-yl]-3-oxo-propyl}-N-pyridin-4-yl-benzamide dihydrochloric acid salt] and N[C@@H](CC(=O)N1CCC[C@H]1c1cccc(F)c1)c1ccc(C(=O)Nc2ccncc2)cc1 [Compound 152, 4-{(S)-1-Amino-3-[(S)-2-(3-fluoro-phenyl)-pyrrolidin-1-yl]-3-oxo-propyl}-N-pyridin-4-yl-benzamide dihydrochloric acid salt] cannot be ordered by IC50: less than 0.5 µM for the first, less than 0.5 µM for the second.

CN(CC(N)c1ccc(C(=O)Nc2ccncc2)cc1)S(=O)(=O)c1ccccc1Cl (centres unmarked) [Compound 143, 4-{1-Amino-2-[(2-chloro-benzenesulfonyl)-methyl-amino]-ethyl}-N-pyridin-4-yl-benzamide dihydrochloric acid salt] and CN(CC(N)c1ccc(C(=O)Nc2ccncc2)cc1)S(=O)(=O)c1ccccc1 (centres unmarked) [Compound 139, 4-[1-Amino-2-(benzenesulfonyl-methyl-amino)-ethyl]-N-pyridin-4-yl-benzamide dihydrochloric acid salt] fall in the same range of IC50: 0.5 to 5 µM for the first, 0.5 to 5 µM for the second.

N[C@H](C(=O)NCc1ccccc1)c1ccc(C(=O)Nc2ccncc2)cc1 [Compound 155, 4-((S)-Amino-benzylcarbamoyl-methyl)-N-pyridin-4-yl-benzamide dihydrochloric acid salt] and COc1ccc(S(=O)(=O)N(C)CC(N)c2ccc(C(=O)Nc3ccncc3)cc2)cc1 (centres unmarked) [Compound 146, 4-{1-Amino-2-[(4-methoxy-benzenesulfonyl)-methyl-amino]-ethyl}-N-pyridin-4-yl-benzamide dihydrochloric acid salt] cannot be ordered by IC50: less than 0.5 µM for the first, less than 0.5 µM for the second.

First: NC(c1ccc(C(=O)Nc2ccncc2)cc1)C1CCCN1S(=O)(=O)c1ccc(F)cc1 (centres unmarked) [Compound 138, 4-{Amino-[1-(4-fluoro-benzenesulfonyl)-pyrrolidin-2-yl]-methyl}-N-pyridin-4-yl-benzamide dihydrochloric acid salt]
Second: COc1ccc(S(=O)(=O)N(C)C[C@@H](N)c2ccc(C(=O)Nc3ccncc3)cc2)cc1 [Compound 154, 4-{(S)1-Amino-2-[(4-methoxy-benzenesulfonyl)-methyl-amino]-ethyl}-N-pyridin-4-yl-benzamide dihydrochloric acid salt]
The IC50 of the first is higher: 0.5 to 5 µM for the first, less than 0.5 µM for the second. The second is the more potent here.
